What was measured:
[1] = target: T1, human CK1Epsilon (Cos 7 cells cotransfected with mouse Per3-GFP) (Homo sapiens, UniProt P49674); assay: CK1 WCA HCS nuclear translocation assay (CK1ε); assay type: cell-based; settings: inhibition of mPer3-GFP translocation to the nucleus, overnight exposure, read-out: CK1 ε WCA EC50
T1 construct: His tag of the vector pcDNA4/hisA (only the vector name is printed); expressed in transfected cells; host or cells: Cos 7 cells
Procedure: (§1) CK1 WCA HCS Nuclear Translocation Assay.
(§2) Cos 7 cells were maintained at 37° C. in 5% CO2 in Dulbecco's Modified Eagle Medium (Gibco 11995) supplemented with 10% fetal bovine serum. Log-phase cells were dislodged with 5 min treatment of TrypLE Express (Gibco 12605) and viable cell count was determined with Cedex cell counter. Cells were diluted in DMEM medium to a density of 1.5e5 viable cells/mL in ⅔ of the final volume of final transfected cell mix. Cells were cotransfected with two plasmid DNAs, mouse Per3-GFP (green fluorescent protein) in pd2EGFP-N1 vector and human CKI in pcDNA4/hisA vector (for CK1Epsilon at a ratio of 1:5 respectively; for CK1δ at a ratio of 1:11 respectively), using Lipofectamine 2000 reagent (Invitrogen) according to the manufacturer's recommendations. The transfection mix contained approximately 0.83 μg/mL of DNA and 6 μL/mL of Lipofectamine 2000, in a total of ⅓ of the final transfection volume in Opti-MEM I medium (Invitrogen). After 20 min at rt, the cell mix was combined with the DNA transfection mix, per manufacturer instructions. 50 μL of the transfected cell suspension was dispensed per well by multidrop dispenser into Greiner 384-well Cellcoat (PDL) plates (Greiner #781946).
(§3) Compounds were solubilized in 100% DMSO, diluted with Opti-MEM I to a 4× concentration before addition to plated cells. After overnight exposure at 37° C. in a CO2 incubator, cells were fixed by the addition of 12% paraformaldehyde (Electron Microscopy Sciences, Hatfield, Pa.) in phosphate-buffered saline (PBS) with 20% sucrose to a final concentration of 4%, and then the cells were incubated for 30 min at rt. Fixative was removed, and cells were washed with PBS and then stained with 0.4 μg/ml Hoechst dye (Invitrogen) in blocking buffer containing 4% goat serum (Vector Labs s-1000) and 0.1% TritonX (Sigma T8787) for 1 h. Cells were washed again with PBS and stored at 4° C. in PBS or scanned immediately with the Cellomics ArrayScan VTI. CKIδ dependent nuclear localization of the GFP-tagged mPer3 protein was quantitated using the Cellomics ArrayScan VTI system utilizing the Cytoplasm to Nucleus translocation bioapplication to calculate the Nuclear-Cytoplasmic Intensity difference. Inhibitors of CK1 δ/ε were tested across a dose response curve to evaluate their ability to inhibit mPer3-GFP translocation to the nucleus. Cells with a total intensity of mPER3:GFP expression equal to or greater than 20,000 are included in analysis.

[2] = target: T2, human CK1δ (Cos 7 cells cotransfected with mouse Per3-GFP) (Homo sapiens, UniProt P48730); assay: CK1 WCA HCS nuclear translocation assay (CK1δ); assay type: cell-based; settings: inhibition of mPer3-GFP translocation to the nucleus, overnight exposure, read-out: CK1 δ WCA EC50
T2 construct: His tag of the vector pcDNA4/hisA (only the vector name is printed); expressed in transfected cells; host or cells: Cos 7 cells
T2 sequence (P48730 whole entry): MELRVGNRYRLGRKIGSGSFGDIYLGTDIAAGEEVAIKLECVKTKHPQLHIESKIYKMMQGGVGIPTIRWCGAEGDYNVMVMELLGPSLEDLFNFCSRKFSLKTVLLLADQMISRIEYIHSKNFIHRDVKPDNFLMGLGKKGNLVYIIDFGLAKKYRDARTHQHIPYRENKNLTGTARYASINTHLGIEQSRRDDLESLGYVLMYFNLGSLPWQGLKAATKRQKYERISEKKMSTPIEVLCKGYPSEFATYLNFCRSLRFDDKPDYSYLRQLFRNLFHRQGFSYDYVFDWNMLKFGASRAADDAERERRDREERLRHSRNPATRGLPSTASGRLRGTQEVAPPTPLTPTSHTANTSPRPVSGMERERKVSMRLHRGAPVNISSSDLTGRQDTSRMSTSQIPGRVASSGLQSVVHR
Procedure: as §1, §2, §3

[3] = target: CKI ε wild type (Homo sapiens, UniProt P49674); assay: CK1ε kinase assay (Kinase-Glo); assay type: biochemical; settings: 10 μM ATP, 2.5 nM CKI ε, 70 min at 25° C.; read-out: CK1 ε:IC50
CKI ε wild type, sequence (P49674 whole entry): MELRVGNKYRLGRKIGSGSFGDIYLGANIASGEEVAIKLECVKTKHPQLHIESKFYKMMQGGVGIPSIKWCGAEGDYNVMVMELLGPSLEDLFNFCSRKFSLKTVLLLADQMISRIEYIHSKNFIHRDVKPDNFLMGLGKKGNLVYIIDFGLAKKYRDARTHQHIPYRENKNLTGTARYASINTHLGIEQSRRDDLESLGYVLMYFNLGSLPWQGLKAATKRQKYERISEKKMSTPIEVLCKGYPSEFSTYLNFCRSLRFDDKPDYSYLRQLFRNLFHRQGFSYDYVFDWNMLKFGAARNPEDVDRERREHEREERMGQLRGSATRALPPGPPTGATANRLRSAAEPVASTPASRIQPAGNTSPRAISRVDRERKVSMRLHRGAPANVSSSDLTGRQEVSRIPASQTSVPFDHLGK
Procedure: (§4) The CK1ε kinase assay was performed in a 40-μl final volume in buffer containing 50 mM Tris, pH 7.5, 10 mM MgCl2, 1 mM dithiothreitol, 100 μg/mL BSA with 10 μM ATP, 2.5 nM CKI ε wild type, and 42 μM peptide substrate PLSRTLp[…] (Flotow et al., 1990) in the presence of 1 μl of CKI ε inhibitor or 4% DMSO. The reaction was incubated for 70 min at 25° C.; detection was carried out as described for the Kinase-Glo Assay (Promega). Luminescent output was measured on the Perkin Elmer Envision plate reader (PerkinElmer, Waltham, Mass.).

[4] = target: CKIδ wild type (Homo sapiens, UniProt P48730); assay: CK1δ kinase assay (Kinase-Glo); assay type: biochemical; settings: 10 μM ATP, 2 nM CKIδ, 85 min at 25° C.; read-out: CK1 δ IC50
CKIδ wild type, sequence (P48730 whole entry): as the sequence (P48730 whole entry) above
Procedure: as §4, with “CK1δ” for “CK1ε”, “40 μl” for “40-μl”, “2” for “2.5”, “CKIδ” for “CKI ε”, “85” for “70”

T1 sequence (P49674 whole entry): as the sequence (P49674 whole entry) above

SMILES | EC50 [1] [nM] | EC50 [2] [nM] | IC50 [3] [nM] | IC50 [4] [nM]
CC1COc2c(-c3cn(C)nc3-c3ccc(F)cc3)ccnc2CN1 (stereo not shown) [Example 9, 9-[3-(4-fluorophenyl)-1-methyl-1H-pyrazol-4-yl]-3-methyl-2,3,4,5-tetrahydropyrido[2,3-f][1,4]oxazepine] | 834 | 199 |  | 
CC(C)CN1Cc2nccc(-c3cn(C)nc3-c3ccc(F)cc3)c2C1=O [Example 39, 4-[3-(4-fluorophenyl)-1-methyl-1H-pyrazol-4-yl]-6-isobutyl-6,7-dihydro-5H-pyrrolo[3,4-b]pyridin-5-one] |  | 188 | 241 | 49.5
Cn1cc(-c2ccnc3c2CN(S(=O)(=O)C2CC2)C3)c(-c2ccc(F)cc2)n1 [Example 12, 6-(cyclopropylsulfonyl)-4-[3-(4-fluorophenyl)-1-methyl-1H-pyrazol-4-yl]-6,7-dihydro-5H-pyrrolo[3,4-b]pyridine] | 882 | 202 |  | 
CCOCCCN1Cc2nccc(-c3cn(C)nc3-c3ccc(F)cc3)c2C1=O [Example 51, 6-(3-ethoxypropyl)-4-[3-(4-fluorophenyl)-1-methyl-1H-pyrazol-4-yl]-6,7-dihydro-5H-pyrrolo[3,4-b]pyridin-5-one] |  | 129 | 63.8 | 14.6
CC(C)OC(=O)CN1Cc2nccc(-c3cn(C)nc3-c3ccc(F)cc3)c2C1=O [Example 49, isopropyl {4-[3-(4-fluorophenyl)-1-methyl-1H-pyrazol-4-yl]-5-oxo-5,7-dihydro-6H-pyrrolo[3,4-b]pyridin-6-yl}acetate] |  | 506 | 496 | 108
Cn1cc(-c2ccnc3c2C(=O)N([C@H]2[C@@H]4COC[C@@H]42)C3)c(-c2ccc(F)cc2)n1 [Example 45, 4-[3-(4-fluorophenyl)-1-methyl-1H-pyrazol-4-yl]-6-[(1R,5S,6r)-3-oxabicyclo[3.1.0]hex-6-yl]-6,7-dihydro-5H-pyrrolo[3,4-b]pyridin-5-one] |  | 167 | 87 | 19.5
Cn1cc(-c2ccnc3c2C(=O)N(C2CCOCC2)C3)c(-c2ccc(F)cc2)n1 [Example 36, 4-[3-(4-fluorophenyl)-1-methyl-1H-pyrazol-4-yl]-6-(tetrahydro-2H-pyran-4-yl)-6,7-dihydro-5H-pyrrolo[3,4-b]pyridin-5-one] |  | 224 | > 516 | > 195
COC(=O)C1(N2Cc3nccc(-c4cn(C)nc4-c4ccc(F)cc4)c3C2=O)CC1 [Example 31, methyl 1-{4-[3-(4-fluorophenyl)-1-methyl-1H-pyrazol-4-yl]-5-oxo-5,7-dihydro-6H-pyrrolo[3,4-b]pyridin-6-yl}cyclopropanecarboxylate] |  | 304 | 187 | 48.1
Cn1cc(-c2ccnc3c2C(=O)N([C@H]2CCOC2=O)C3)c(-c2ccc(F)cc2)n1 [Example 46, 4-[3-(4-fluorophenyl)-1-methyl-1H-pyrazol-4-yl]-6-[(3S)-2-oxotetrahydrofuran-3-yl]-6,7-dihydro-5H-pyrrolo[3,4-b]pyridin-5-one] |  | 1430 | 384 | 68.7

These reach a lower EC50 [2]. Values come first.

EC50 [1] [nM] | EC50 [2] [nM] | IC50 [3] [nM] | IC50 [4] [nM] | SMILES
150 | 40.2 |  |  | CC(=O)N1Cc2nccc(-c3cn(C)nc3-c3ccc(F)cc3)c2C1 [Example 14, 6-acetyl-4-[3-(4-fluorophenyl)-1-methyl-1H-pyrazol-4-yl]-6,7-dihydro-5H-pyrrolo[3,4-b]pyridine]
218 | 38.1 |  |  | Cn1cc(-c2ccnc3c2CN(C(=O)C2CCOC2)C3)c(-c2ccc(F)cc2)n1 (stereo not shown) [Example 16, 4-[3-(4-fluorophenyl)-1-methyl-1H-pyrazol-4-yl]-6-(tetrahydrofuran-3-ylcarbonyl)-6,7-dihydro-5H-pyrrolo[3,4-b]pyridine]
361 | 84.7 |  |  | Cn1cc(-c2ccnc3c2CN(C(=O)Cc2ncccn2)C3)c(-c2ccc(F)cc2)n1 [Example 20, 4-[3-(4-fluorophenyl)-1-methyl-1H-pyrazol-4-yl]-6-(pyrimidin-2-ylacetyl)-6,7-dihydro-5H-pyrrolo[3,4-b]pyridine]
275 | 51.6 |  |  | Cn1cc(-c2ccnc3c2CN(C(=O)OCc2ccccc2)C3)c(-c2ccc(F)cc2)n1 [Example 22, benzyl 4-[3-(4-fluorophenyl)-1-methyl-1H-pyrazol-4-yl]-5,7-dihydro-6H-pyrrolo[3,4-b]pyridine-6-carboxylate]
195 | 39.5 |  |  | CC(C)C(=O)N1Cc2nccc(-c3cn(C)nc3-c3ccc(F)cc3)c2C1 [Example 18, 4-[3-(4-fluorophenyl)-1-methyl-1H-pyrazol-4-yl]-6-isobutyryl-6,7-dihydro-5H-pyrrolo[3,4-b]pyridine]
668 | 103 |  |  | CCS(=O)(=O)N1Cc2nccc(-c3cn(C)nc3-c3ccc(F)cc3)c2C1 [Example 11, 6-(ethylsulfonyl)-4-[3-(4-fluorophenyl)-1-methyl-1H-pyrazol-4-yl]-6,7-dihydro-5H-pyrrolo[3,4-b]pyridine]
82.3 | 18.3 |  |  | Cn1cc(-c2ccnc3c2CN(C(=O)C2CC2)C3)c(-c2ccc(F)cc2)n1 [Example 21, 6-(cyclopropylcarbonyl)-4-[3-(4-fluorophenyl)-1-methyl-1H-pyrazol-4-yl]-6,7-dihydro-5H-pyrrolo[3,4-b]pyridine]
566 | 54.8 |  |  | Cn1cc(-c2ccnc3c2CN(C(=O)C2CCOCC2)C3)c(-c2ccc(F)cc2)n1 [Example 19, 4-[3-(4-fluorophenyl)-1-methyl-1H-pyrazol-4-yl]-6-(tetrahydro-2H-pyran-4-ylcarbonyl)-6,7-dihydro-5H-pyrrolo[3,4-b]pyridine]
75.4 | 12.6 |  |  | Cn1cc(-c2ccnc3c2CN(C(=O)CC2CC2)C3)c(-c2ccc(F)cc2)n1 [Example 15, 6-(cyclopropylacetyl)-4-[3-(4-fluorophenyl)-1-methyl-1H-pyrazol-4-yl]-6,7-dihydro-5H-pyrrolo[3,4-b]pyridine]
 | 89.7 | > 423 | > 160 | CCC[C@@H](C)N1Cc2nccc(-c3cn(C)nc3-c3ccc(F)cc3)c2C1=O [Example 47, 4-[3-(4-fluorophenyl)-1-methyl-1H-pyrazol-4-yl]-6-[(1R)-1-methylbutyl]-6,7-dihydro-5H-pyrrolo[3,4-b]pyridin-5-one]
 | 59.8 | 83.7 | 17.4 | CNC1CCc2c(-c3cn(C)nc3-c3ccc(F)cc3)ccnc21 (stereo not shown) [Example 25, 4-[3-(4-fluorophenyl)-1-methyl-1H-pyrazol-4-yl]-N-methyl-6,7-dihydro-5H-cyclopenta[b]pyridin-7-amine]
 | 71.4 | 92 | 18.6 | Cc1noc(CCN2Cc3nccc(-c4cn(C)nc4-c4ccc(F)cc4)c3C2=O)n1 [Example 38, 4-[3-(4-fluorophenyl)-1-methyl-1H-pyrazol-4-yl]-6-[2-(3-methyl-1,2,4-oxadiazol-5-yl)ethyl]-6,7-dihydro-5H-pyrrolo[3,4-b]pyridin-5-one]

— US8536164B2, “Fused pyridine compounds as casein kinase inhibitors” (Pfizer Inc., priority 2010, dated 2013)
